Experimental data from patent US4225595A, “Piperazine phosphates and phosphonate insecticides” (priority 1979, dated 1980).
In brackets after ≈: the same amount, converted by molar mass.

Legend:
[1] = test system: Southern House Mosquito Larvae (Culex pipiens quinquefasciatus); test: Southern House Mosquito larvae (M) assay, mortality 48 hours after treatment; format: in vivo; conditions: third-instar larvae in aqueous solution, initial 1 ppm, read-out: LD50 M
Description: (§1) Screening was initiated at a maximal concentration level believed to be injurious to the insect population. The initial level should not be understood as representing a maximum at which a viable test for insecticidal activity can be conducted.
Tobacco budworms were tested in the same manner as the cabbage looper. Romaine lettuce (Latuca sativa) leaves provided the substrate. Southern House Mosquito Larvae (Culex pipiens quinquefasciatus), (M)
Ten third-instar larvae were placed in a six ounce wax paper cup containing 100 ml of an aqueous solution of the test compounds at a concentration of 1 ppm. The treated larvae were stored at 70° F. (21.5° C.) and mortality was recorded 48 hours after treatment. Two-Spotted Mite [Tetranychus urticae (Koch)], (2SM)
(§2) A less than 50% mortality rate at the initial concentration is indicated by a "greater than" sign (>). An approximately 50% mortality rate is indicated by the initial concentration rate. Other results are the dilutions at which an LD50 was achieved.

[2] = test system: Black Bean Aphid [Aphis fabae (Scop.)]; test: Black Bean Aphid (BBA) plant spray assay, mortality after three days; format: in vivo; conditions: spray on infested nasturtium plants
Description: (§3) Screening was initiated at a maximal concentration level believed to be injurious to the insect population. The initial level should not be understood as representing a maximum at which a viable test for insecticidal activity can be conducted. […]
(§4) Nasturtium plants, Tropaeolum sp., approximately five centimeters (cm) high were transplanted into sandy loam soil in three-inch clay pots. Each pot was infested with 25-50 black bean aphids of mixed ages. Twenty-four hours later the pots were sprayed to the point of run-off with 50--50 acetone-water solutions of the test compounds.
(§5) Mortality rates were recorded after the infested plants had been held in the greenhouse for three days. Test concentrations ranged from 0.05% down to that at which 50% mortality occurs. Green Peach Aphid [Myzus persicae (Sulzer)], (GPA)
as §2

[3] = test system: Two-Spotted Mite [Tetranychus urticae (Koch)]; test: Two-Spotted Mite (2SM) plant dip assay, mortality seven days later; format: in vivo
Description: as §3
Pinto bean plants (Phaseolus vulgaris) approximately 10 cm high were transplanted into sandy loam soil in three-inch clay pots. The plants were thoroughly infested with two-spotted mites of mixed ages and sexes. Twenty-four hours after infestation the plants were inverted and dipped for 2-3 seconds in 50--50 acetone-water solutions of the test compounds.
Mortality ratings for both adult mites and nymphs hatching after treatment were taken seven days later. Test concentrations ranged from 0.05% down to that at which 50% mortality occurs.
as §2

[4] = test system: Green Peach Aphid [Myzus persicae (Sulzer)]; test: Green Peach Aphid (GPA) plant spray assay; format: in vivo; conditions: spray on infested radish plants, three days
Description: as §1, §4, §5
(§6) The insecticidal properties were tested in the same manner as for black beam aphids with the substitution of the nasturtiums by radish plants, Rhaphanus sativus. German Cockroach [Blatella germanica (Linne)], (GR)--Direct Spray
as §2

[5] = test system: German Cockroach [Blatella germanica (Linne)]; test: German Cockroach (GR) direct spray, mortality 7 days later; format: in vivo; conditions: one-month-old nymphs, initial 0.1%
Description: as §1
(§7) Mobile insects, such as houseflies, German cockroaches, Lygus bugs, were contained for treatment in circular cardboard cages covered with cellophane on the bottom and tulle netting on the top.
as §6
(§8) Test compounds were diluted in a 50--50 acetonewater solution. Two cubic centimeters (cc) of the compound solutions were sprayed through a DeVilbiss type EGA hand spray gun into cages each containing 10 one-month-old German cockroach nymphs.
The percent mortality was recorded 7 days later. Test concentrations ranged from 0.1% down to that at which approximately 50% mortality occurs.
as §2

[6] = test system: Saltmarsh Caterpillar [Estigmene acrea (Drury)]; test: Saltmarsh Caterpillar (SMC) leaf dip assay; format: in vivo; conditions: curly dock leaves, second-instar larvae, 48 hours + 5 days
Description: as §1
(§9) The species was treated in the same manner as the German cockroach. The cages contained one string beam pod and 10 adult Lygus bugs. The percent mortality was recorded 48 hours later. Test concentrations ranged from 0.05% down to that at which approximately 50% mortality occurs. Saltmarsh Caterpillar [Estigmene acrea (Drury)], (SMC)--Leaf Dip Assay
(§10) Test compounds were diluted in a 50--50 acetone-water solution. Approximately 1×1.5 inch sections of curly dock (Rumex crispus) leaves were immersed in the test solution for 2-3 seconds. After drying on a wire screen, the leaves were placed in petri dishes containing a moistened piece of filter paper. Each dish was infested with 5 secondinstar saltmarsh larvae.
(§11) Mortality of the larvae was recorded 48 hours later. A piece of synthetic media was added to the dishes containing surviving larvae. The larvae were then observed for 5 additional days for delayed effects of the test compounds. Test concentrations ranged from 0.05% down to that at which approximately 50% mortality occurs. Cabbage Looper [Trichoplusia ni (Hubner)], (CL)
as §2

[7] = test system: Lygus Bug [Lygus hesperus (Knight)]; test: Lygus Bug (LB) direct spray assay, mortality 48 hours later; format: in vivo; conditions: adults, initial 0.05%
Description: as §1, §7, §8
Lygus Bug [Lygus hesperus (Knight)], (LB)--Direct Spray Assay
as §9, §2

[8] = test system: Tobacco Budworm [Heliothis virescens (Fabricius)]; conditions: leaf dip, Romaine lettuce leaves
Description: Mortality of the larvae was recorded 48 hours later. A piece of synthetic media was added to the dishes containing surviving larvae. […] Test concentrations ranged from 0.05% down to that at which approximately 50% mortality occurs.

[9] = test system: Cabbage Looper [Trichoplusia ni (Hubner)]; test: Cabbage Looper (CL) leaf dip assay; format: in vivo; conditions: squash cotyledons, initial 0.1%
Description: as §1, §10, §11
The effectiveness of the compounds was tested in the same manner as for the saltmarsh caterpillar with two exceptions. Cotyledons of hyzini squash (Calabacita abobrinha, were substituted for curly dock leaves and the initial test concentration was 0.1%. Tobacco Budworm [Heliothis virescens (Fabricius)], (TBW)
as §2

[10] = test system: Housefly [Musca domestica (Linn.)]; conditions: topical, 48 h
Description: Housefly [Musca domestica (Linn.)], (HF)--Contact Residue Assay
Test compounds were diluted in acetone and aliquots were pipetted onto the bottom of 55×15 millimeter (mm) aluminum dishes. One ml of acetone containing 0.02% peanut oil was added to each dish to insure even spreading. After all solvents had evaporated the dishes were placed in cages each containing 25 one to two day old female houseflies. Each cage contained a sugar-water cotton plug for sustanence of the flies.
Mortality rates were recorded after 48 hours. Test levels ranged from 10 μ/25 .female. houseflies down to that at which approximately 50% mortality occurs.

## CCOC(=O)N1CCN(C(=O)CSP(=S)(OC)OC)C(C)C1 (centres unmarked) [Compound 11, 1-N-ethoxycarbo-4-N'-O,O-dimethylphosphorodithioylacetyl-3-methyl piperazine]
[1]
  LC50: 1 µg/mL (≈ 2.7 µM)
[2]
  LD50 BBA: .002%
[3]; adult mites
  LD50 2SM Adults: < .05%
[3]; eggs (nymphs hatching after treatment)
  LD50 2SM Eggs: < .05%
[4]
  LD50 GPA: .03%
[5]
  LD50 GR: > .1%
[6]
  LD50 SMC: .05%
[7]
  LD50 LB: > .05%
[8]
  LD50 TBW: .1%
[9]
  LD50 CL: > .1%
[10]
  LD50 HF: > 10 μg/25
